Source: ChEMBL document CHEMBL1157860, “CoMFA and CoMSIA studies on HIV-1 attachment inhibitors” (Eur J Med Chem, 2010)

Assay: Inhibition of HIV1 gp120 binding to CD4 in human HeLa cells by cell fusion assay
Format: cell-based, Human immunodeficiency virus 1

Row | SMILES | EC50 | pEC50
1 | O=C(C(=O)N1CCN(C(=O)c2ccccc2)CC1)c1c[nH]c2cccc(F)c12 | 2.59 nM | 8.59
2 | O=C(C(=O)N1CCN(C(=O)c2ccccc2)CC1)c1c[nH]c2c(F)ccc(F)c12 | 0.35 nM | 9.46
3 | O=C(C(=O)N1CCN(C(=O)c2ccccc2)CC1)c1c[nH]c2c(Br)ccc(OC(F)(F)F)c12 | 42.8 nM | 7.37
4 | O=C(C(=O)N1CCN(C(=O)c2ccccc2)CC1)c1c[nH]c2cc(F)c(Br)c(F)c12 | 23.1 nM | 7.64
5 | O=C(C(=O)N1CCN(C(=O)c2ccccc2)CC1)c1c[nH]c2cccc(O)c12 | 20100 nM | 4.7
6 | O=C(C(=O)N1CCN(C(=O)c2ccccc2)CC1)c1c[nH]c2cccc(Cl)c12 | 4.3 nM | 8.37
7 | CCCCn1cc(C(=O)C(=O)N2CCN(C(=O)c3ccccc3)CC2)c2ccccc21 | 2650 nM | 5.58
8 | O=C(C(=O)N1CCN(C(=O)c2ccccc2)CC1)c1c[nH]c2cccc([N+](=O)[O-])c12 | 150 nM | 6.82
9 | O=C(C(=O)N1CCN(C(=O)c2ccccc2)CC1)c1c[nH]c2c(Br)cccc12 | 17.4 nM | 7.76
10 | CCOc1cccc2c(C(=O)C(=O)N3CCN(C(=O)c4ccccc4)CC3)c[nH]c12 | 0.5 nM | 9.3
11 | O=C(C(=O)N1CCN(C(=O)c2ccccc2)CC1)c1c[nH]c2ccc(F)cc12 | 838 nM | 6.08
12 | COc1cc2[nH]cc(C(=O)C(=O)N3CCN(C(=O)c4ccccc4)CC3)c2cc1OC | 46500 nM | 4.33
13 | Cc1cccc2c(C(=O)C(=O)N3CCN(C(=O)c4ccccc4)CC3)c[nH]c12 | 89.5 nM | 7.05
14 | O=C(C(=O)N1CCN(C(=O)c2ccccc2)CC1)c1c[nH]c2cc(Cl)ccc12 | 208 nM | 6.68
15 | COc1cccc2c(C(=O)C(=O)N3CCN(C(=O)c4ccccc4)CC3)c[nH]c12 | 6.6 nM | 8.18
16 | CC(=O)Oc1cccc2[nH]cc(C(=O)C(=O)N3CCN(C(=O)c4ccccc4)CC3)c12 | 24900 nM | 4.6
17 | CCc1cccc2c(C(=O)C(=O)N3CCN(C(=O)c4ccccc4)CC3)c[nH]c12 | 24.2 nM | 7.62
18 | N#Cc1ccc2[nH]cc(C(=O)C(=O)N3CCN(C(=O)c4ccccc4)CC3)c2c1 | 121000 nM | 3.92
19 | COc1ccc(F)c2c(C(=O)C(=O)N3CCN(C(=O)c4ccccc4)CC3)c[nH]c12 | 0.06 nM | 10.22
20 | C=CCn1cc(C(=O)C(=O)N2CCN(C(=O)c3ccccc3)CC2)c2ccccc21 | 6760 nM | 5.17
21 | O=C(C(=O)N1CCN(C(=O)c2ccccc2)CC1)c1c[nH]c2ccccc12 | 153 nM | 6.82
22 | O=C(C(=O)N1CCN(C(=O)c2ccccc2)CC1)c1c[nH]c2c(Br)ccc(F)c12 | 0.13 nM | 9.89
23 | N#Cc1ccc(F)c2c(C(=O)C(=O)N3CCN(C(=O)c4ccccc4)CC3)c[nH]c12 | 1.9 nM | 8.72
24 | O=C(C(=O)N1CCN(C(=O)c2ccccc2)CC1)c1c[nH]c2cc(Cl)c(Cl)cc12 | 500 nM | 6.3
25 | CCOc1cccc2[nH]cc(C(=O)C(=O)N3CCN(C(=O)c4ccccc4)CC3)c12 | 0.45 nM | 9.35
26 | Cc1ccc(F)c2c(C(=O)C(=O)N3CCN(C(=O)c4ccccc4)CC3)c[nH]c12 | 0.56 nM | 9.25

Row | SMILES | EC50 | pEC50
27 | CC(=O)Oc1ccc2[nH]cc(C(=O)C(=O)N3CCN(C(=O)c4ccccc4)CC3)c2c1 | 952 nM | 6.02
28 | COc1ccc(C#N)c2[nH]cc(C(=O)C(=O)N3CCN(C(=O)c4ccccc4)CC3)c12 | 0.06 nM | 10.22
29 | O=C(C(=O)N1CCN(C(=O)c2ccccc2)CC1)c1c[nH]c2c(F)ccc(Br)c12 | 8.2 nM | 8.09
30 | CCCCOc1cccc2c(C(=O)C(=O)N3CCN(C(=O)c4ccccc4)CC3)c[nH]c12 | 0.14 nM | 9.85
31 | O=C(C(=O)N1CCN(C(=O)c2ccccc2)CC1)c1c[nH]c2c(Cl)cccc12 | 4.4 nM | 8.36
32 | O=C(C(=O)N1CCN(C(=O)c2ccccc2)CC1)c1c[nH]c2c(F)c(F)c(F)c(F)c12 | 1.7 nM | 8.77
33 | O=C(C(=O)N1CCN(C(=O)c2ccccc2)CC1)c1c[nH]c2cc(F)ccc12 | 21.1 nM | 7.68
34 | O=C(C(=O)N1CCN(C(=O)c2ccccc2)CC1)c1c[nH]c2c(OCC(F)(F)F)ccc(F)c12 | 0.71 nM | 9.15
35 | COc1ccc(OC)c2c(C(=O)C(=O)N3CCN(C(=O)c4ccccc4)CC3)c[nH]c12 | 0.23 nM | 9.64
36 | COc1ccc(Br)c2[nH]cc(C(=O)C(=O)N3CCN(C(=O)c4ccccc4)CC3)c12 | 0.13 nM | 9.89
37 | O=C(C(=O)N1CCN(C(=O)c2ccccc2)CC1)c1c[nH]c2ccc([N+](=O)[O-])cc12 | 3800 nM | 5.42
38 | O=C(C(=O)N1CCN(C(=O)c2ccccc2)CC1)c1cn(Cc2ccccc2)c2ccccc12 | 13800 nM | 4.86
39 | Cn1cc(C(=O)C(=O)N2CCN(C(=O)c3ccccc3)CC2)c2ccccc21 | 265 nM | 6.58
40 | O=C(C(=O)N1CCN(C(=O)c2ccccc2)CC1)c1c[nH]c2c(F)cccc12 | 7.3 nM | 8.14
41 | O=C(C(=O)N1CCN(C(=O)c2ccccc2)CC1)c1c[nH]c2cccc(Br)c12 | 4.5 nM | 8.35
42 | COc1ccc2[nH]cc(C(=O)C(=O)N3CCN(C(=O)c4ccccc4)CC3)c2c1 | 21100 nM | 4.68
43 | Cc1ccc2[nH]cc(C(=O)C(=O)N3CCN(C(=O)c4ccccc4)CC3)c2c1 | 1550 nM | 5.81
44 | O=C(C(=O)N1CCN(C(=O)c2ccccc2)CC1)c1c[nH]c2c(Br)cc(F)cc12 | 73.1 nM | 7.14
45 | O=C(C(=O)N1CCN(C(=O)c2ccccc2)CC1)c1c[nH]c2cc(F)cc(F)c12 | 0.42 nM | 9.38
46 | CCn1cc(C(=O)C(=O)N2CCN(C(=O)c3ccccc3)CC2)c2ccccc21 | 1450 nM | 5.84
47 | COc1cccc2[nH]cc(C(=O)C(=O)N3CCN(C(=O)c4ccccc4)CC3)c12 | 0.52 nM | 9.28
48 | COc1ccc(Cl)c2[nH]cc(C(=O)C(=O)N3CCN(C(=O)c4ccccc4)CC3)c12 | 0.07 nM | 10.15
49 | O=C(C(=O)N1CCN(C(=O)c2ccccc2)CC1)c1c[nH]c2ccc(Cl)cc12 | 395 nM | 6.4
50 | N#Cc1cccc2c(C(=O)C(=O)N3CCN(C(=O)c4ccccc4)CC3)c[nH]c12 | 4.9 nM | 8.31
51 | COc1ccc2c(C(=O)C(=O)N3CCN(C(=O)c4ccccc4)CC3)c[nH]c2c1 | 329 nM | 6.48
52 | O=C(C(=O)N1CCN(C(=O)c2ccccc2)CC1)c1c[nH]c2ccc(Br)cc12 | 1090 nM | 5.96
